Assay results published in ChEMBL document CHEMBL5143569 (Eur J Med Chem, 2022).

Experiments:
[1] = biological target: Tyrosine-protein phosphatase non-receptor type 6 (Homo sapiens, UniProt P29350); test: Inhibition of wild-type SHP1 (2 to 595 residues) (unknown origin) using DiFMUP as substrate and measured by biochemical assay
[2] = biological target: T1, Tyrosine-protein phosphatase non-receptor type 1 (Homo sapiens, UniProt P18031); test: Inhibition of wild-type PTP1B (2 to 435 residues) (unknown origin) using DiFMUP as substrate and measured by biochemical assay
T1 sequence (P18031 whole entry): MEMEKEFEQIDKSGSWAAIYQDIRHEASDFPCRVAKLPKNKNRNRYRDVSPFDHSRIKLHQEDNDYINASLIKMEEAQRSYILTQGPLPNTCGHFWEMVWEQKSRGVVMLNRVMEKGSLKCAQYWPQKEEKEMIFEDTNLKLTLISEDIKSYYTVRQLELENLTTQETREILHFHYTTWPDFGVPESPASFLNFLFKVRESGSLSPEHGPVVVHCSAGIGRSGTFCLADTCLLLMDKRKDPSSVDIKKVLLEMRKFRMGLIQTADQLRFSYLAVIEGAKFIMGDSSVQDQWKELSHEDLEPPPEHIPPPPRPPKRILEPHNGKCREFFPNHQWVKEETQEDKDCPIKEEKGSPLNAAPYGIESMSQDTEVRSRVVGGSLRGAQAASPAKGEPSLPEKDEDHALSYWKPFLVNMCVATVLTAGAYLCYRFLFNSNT

[3] = Inhibition of SHP2 E76A mutant (unknown origin); parameters: species or system Homo sapiens
[4] = biological target: T2, Tyrosine-protein phosphatase non-receptor type 11 (Homo sapiens, UniProt Q06124)
T2 sequence (Q06124 whole entry): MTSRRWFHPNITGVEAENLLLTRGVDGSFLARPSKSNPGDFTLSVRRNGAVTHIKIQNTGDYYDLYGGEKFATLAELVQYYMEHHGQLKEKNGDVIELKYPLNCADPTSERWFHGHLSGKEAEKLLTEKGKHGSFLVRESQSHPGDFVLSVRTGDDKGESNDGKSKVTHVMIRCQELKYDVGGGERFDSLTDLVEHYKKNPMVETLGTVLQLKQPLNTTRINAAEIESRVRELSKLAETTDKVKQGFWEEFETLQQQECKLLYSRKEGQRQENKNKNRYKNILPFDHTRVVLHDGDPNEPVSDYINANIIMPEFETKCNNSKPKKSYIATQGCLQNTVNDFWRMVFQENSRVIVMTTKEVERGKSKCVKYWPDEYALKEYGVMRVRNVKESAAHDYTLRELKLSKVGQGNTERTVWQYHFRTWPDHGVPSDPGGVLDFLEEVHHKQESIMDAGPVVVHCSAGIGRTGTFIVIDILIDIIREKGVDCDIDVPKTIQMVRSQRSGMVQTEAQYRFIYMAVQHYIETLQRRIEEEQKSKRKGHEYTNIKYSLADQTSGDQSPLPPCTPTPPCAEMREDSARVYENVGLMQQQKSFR
Description: Allosteric inhibition of recombinant human SHP2 PTP domain (237 to 535 residues) using DiFMUP as substrate preincubated for 30 mins and followed by substrate addition and measured by microplate reader method

[5] = biological target: T2, Tyrosine-protein phosphatase non-receptor type 11; remark: listed apart in the source
[6] = biological target: T2, Tyrosine-protein phosphatase non-receptor type 11; test: Reversible inhibition of wild-type human SHP2 using DiFMUP as substrate and measured by jump dilution assay

Chain of Tyrosine-protein phosphatase non-receptor type 6 (P29350 whole entry, the tested form may be a part): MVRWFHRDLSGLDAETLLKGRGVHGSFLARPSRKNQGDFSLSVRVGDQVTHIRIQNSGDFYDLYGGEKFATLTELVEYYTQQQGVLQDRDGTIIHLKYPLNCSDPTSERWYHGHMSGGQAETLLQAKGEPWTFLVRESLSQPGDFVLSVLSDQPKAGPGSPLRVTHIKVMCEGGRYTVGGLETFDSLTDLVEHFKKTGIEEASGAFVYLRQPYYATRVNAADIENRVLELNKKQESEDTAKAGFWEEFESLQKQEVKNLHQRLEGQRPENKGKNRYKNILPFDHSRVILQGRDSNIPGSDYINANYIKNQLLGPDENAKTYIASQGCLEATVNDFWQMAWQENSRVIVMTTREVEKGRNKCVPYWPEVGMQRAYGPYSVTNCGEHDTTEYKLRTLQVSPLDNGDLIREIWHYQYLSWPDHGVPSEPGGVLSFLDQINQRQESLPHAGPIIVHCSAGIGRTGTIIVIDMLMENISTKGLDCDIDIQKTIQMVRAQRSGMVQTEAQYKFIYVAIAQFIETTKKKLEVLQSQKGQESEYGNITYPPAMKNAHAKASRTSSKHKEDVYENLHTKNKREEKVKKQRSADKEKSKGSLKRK

Row | IC50 [4] [µM] | IC50 [5] [µM] | SMILES | also measured
1 | – | – | CC1(N)CCN(c2cnc(-c3cccc(Cl)c3Cl)c(N)n2)CC1 | IC50 [1]: > 100 µM; IC50 [2]: > 100 µM
2 | – | – | CC1(N)CCN(c2nc(-c3ccc4cc(Br)ccc4c3)cs2)CC1 | IC50 [3]: 0.71 µM
3 | > 10 | 0.098 | CC1(N)CCN(c2cnc(Sc3ccccc3Cl)c(N)n2)CC1 | –
4 | > 10 | 0.025 | CC1(N)CCN(c2cnc(Sc3cccc(Cl)c3Cl)c(N)n2)CC1 | –
5 | > 10 | – | CC1(CN)CCN(c2cnc(Sc3cccc(Cl)c3Cl)c(N)n2)CC1 | Ki [6]: 0.022 µM; IC50 [1]: > 100 µM; IC50 [2]: > 100 µM
6 | – | 60 | COc1cccc(-c2nnc3n(Cc4ccc(C(=O)N5CCC[C@H]5C(=O)O)cc4Cl)c(=O)c4ccccc4n23)c1O | –
7 | > 10 | 0.175 | CC1(N)CCN(c2cnc(Sc3cccc4ccccc34)c(N)n2)CC1 | –
8 | > 10 | 9.55 | CC1(N)CCN(c2cnc(SC3CCCCC3)c(N)n2)CC1 | –
9 | > 10 | 13.7 | CC1(O)CCN(c2cnc(-c3cccc(Cl)c3Cl)c(N)n2)CC1 | –
10 | > 10 | 2.03 | Nc1nc(N2CC[C@H](N)C2)cnc1-c1cccc(Cl)c1Cl | –
11 | > 10 | 0.695 | CN1CCN(c2cnc(-c3cccc(Cl)c3Cl)c(N)n2)CC1 | –
12 | > 10 | 0.747 | CC1(N)CCN(c2cnc(Sc3cccc(Cl)c3)c(N)n2)CC1 | –
13 | > 10 | 0.11 | NCC1CCN(c2cnc(Sc3cccc(Cl)c3Cl)c(N)n2)CC1 | –
14 | > 10 | 5.71 | CC1(N)CCN(c2cnc(-c3cccc(F)c3F)c(N)n2)CC1 | –
15 | > 10 | 0.976 | CC1(N)CCN(c2cnc(Sc3ccc4ccccc4c3)c(N)n2)CC1 | –
16 | > 10 | 0.178 | CC1(N)CCN(c2cnc(Sc3ccccc3C(F)(F)F)c(N)n2)CC1 | –

Row | IC50 [4] [µM] | IC50 [5] [µM] | SMILES | also measured
17 | > 10 | 0.811 | CC1(N)CCN(c2cnc(Sc3ccccc3)c(N)n2)CC1 | –
18 | > 10 | 0.079 | COc1ccccc1Sc1ncc(N2CCC(C)(N)CC2)nc1N | –
19 | > 10 | 1.8 | Cc1ccccc1Sc1ncc(N2CCC(C)(N)CC2)nc1N | –
20 | > 10 | 14.8 | CC1(N)CCN(c2cnc(-c3ccc(C#N)cc3)c(N)n2)CC1 | –
21 | > 10 | 9.03 | Cc1ccc(-c2ncc(N3CCC(C)(N)CC3)nc2N)cc1 | –
22 | > 10 | 0.484 | CC1(N)CCN(c2cnc(Sc3ccccc3F)c(N)n2)CC1 | –
23 | > 10 | 0.712 | Nc1nc(N2CCNCC2)cnc1-c1cccc(Cl)c1Cl | –
24 | > 10 | 0.059 | CC1(N)CCN(c2cnc(Sc3ccccc3Br)c(N)n2)CC1 | –
25 | > 10 | 2.77 | Nc1nc(N2CCC(N)CC2)cnc1-c1cccc(Cl)c1Cl | –
26 | > 10 | 6.18 | Nc1nc(N2CCC(O)CC2)cnc1-c1cccc(Cl)c1Cl | –
27 | > 10 | 1.64 | CNC1CCN(c2cnc(-c3cccc(Cl)c3Cl)c(N)n2)CC1 | –
28 | > 10 | 0.858 | NCCC1CCN(c2cnc(-c3cccc(Cl)c3Cl)c(N)n2)CC1 | –
29 | > 10 | 10.8 | CC1(N)CCN(c2cnc(SCc3ccccc3)c(N)n2)CC1 | –
30 | > 10 | 3.84 | CC1(N)CCN(c2cnc(Sc3ccc(Cl)cc3)c(N)n2)CC1 | –
31 | > 10 | 5.6 | CC1(N)CCN(c2cnc(SCc3ccccc3Cl)c(N)n2)CC1 | –
32 | > 10 | 9.66 | CN(CCN)c1cnc(-c2cccc(Cl)c2Cl)c(N)n1 | –
